# According to patent US20100322887A1, “HAIR NOURISHING COSMETIC” (SHOWA DENKO K.K., priority 2008, published 2010):
# Experiments:
# male C3H/HeN Sic mice = test: Hair regrowth promotion test using mouse; format: in vivo; conditions: after 20 days
# Experimental: 15 male C3H/HeN Sic 7-week old mice in the resting stage of the hair cycle had their hair at the back part shorn off carefully with an electric hair clipper and an electric shaver. These mice were divided into three groups each containing 5 mice. To the skin of the shorn part of each mouse in one group, 0.1 ml of a test sample shown in the following Table 4 was applied once a day, and to the skin of the shorn part of each mouse in another group, a base was applied in the same amount. The residual group in which nothing had been applied was regarded as an untreated control.
# After 20 days from the beginning of the experiments, the back part of each mouse was photographed. By the use of an image analyzing software (Image-J), a ratio of the area where the hair had regrown to the whole area of the hair shorn part was calculated, and the resulting ratio was regarded as a hair regrowth ratio. The hair regrowth ratio of each mouse was calculated, and statistical analysis of the hair regrowth ratio of each group was carried out. The results are shown in FIG. 1 and the following Table 5.
# Solubility in water = conditions: normal temperature
solubility in water (Solubility in water),Molecule,"Hair regrowth ratio (%) Average (male C3H/HeN Sic mice; 0.1 ml once a day on shorn back skin, in Macrogol 400:Macrogol 4000 = 9:1 base, n=5)",hair regrowth ratio (in words) (male C3H/HeN Sic mice; test sample group)
–,"tetrapotassium ubiquinol-1,4-diphosphate",58.45%,tendency of enhancement
less than 100 ppm,COC1=C(OC)C(=O)C(C/C=C(\C)CC/C=C(\C)CC/C=C(\C)CC/C=C(\C)CC/C=C(\C)CC/C=C(\C)CC/C=C(\C)CC/C=C(\C)CC/C=C(\C)CCC=C(C)C)=C(C)C1=O [ubiquinone],–,–
